pIC50: −log10 of the molar value.
Experiments:
HCT116 = test: In-vivo model that does not utilize acetate (HCT116); settings: daily oral dosing
[1] = tested on: MDA-MB-468 breast cancer cells xenograft; test: In-vivo efficacy study in MDA-MB-468 breast cancer cells xenograft; settings: 100 mg/kg orally once daily; female NMRI nude mice
Experimental: An in-vivo efficacy study was carried out by Charles-River Laboratories at the Freiburg, Germany site.
Tumor fragments from Breast cancer cell line MDA-MB-468 passaged as subcutaneous xenograft were subcutaneously implanted into female NMRI nude mice (Crl:NMRI-Foxnlnu). The animals were randomized into groups (n=10) when tumors volume reached 50 to 250 mm3. […] Body weights and tumor volume [mm3] by caliper were measured twice weekly.

ACSS1 = biological target: T1, ACSS1 (Homo sapiens, UniProt Q9NUB1); test: Acyl-CoA synthetases selectivity panel: ACSS1; type: biochemical; settings: human recombinant protein, substrate acetate, AMP readout by HPLC; read-out: HPLC based activity assays IC50 (UM) ACSS1
T1 construct: purchased Cusabio, China
T1 sequence (Q9NUB1 38-689): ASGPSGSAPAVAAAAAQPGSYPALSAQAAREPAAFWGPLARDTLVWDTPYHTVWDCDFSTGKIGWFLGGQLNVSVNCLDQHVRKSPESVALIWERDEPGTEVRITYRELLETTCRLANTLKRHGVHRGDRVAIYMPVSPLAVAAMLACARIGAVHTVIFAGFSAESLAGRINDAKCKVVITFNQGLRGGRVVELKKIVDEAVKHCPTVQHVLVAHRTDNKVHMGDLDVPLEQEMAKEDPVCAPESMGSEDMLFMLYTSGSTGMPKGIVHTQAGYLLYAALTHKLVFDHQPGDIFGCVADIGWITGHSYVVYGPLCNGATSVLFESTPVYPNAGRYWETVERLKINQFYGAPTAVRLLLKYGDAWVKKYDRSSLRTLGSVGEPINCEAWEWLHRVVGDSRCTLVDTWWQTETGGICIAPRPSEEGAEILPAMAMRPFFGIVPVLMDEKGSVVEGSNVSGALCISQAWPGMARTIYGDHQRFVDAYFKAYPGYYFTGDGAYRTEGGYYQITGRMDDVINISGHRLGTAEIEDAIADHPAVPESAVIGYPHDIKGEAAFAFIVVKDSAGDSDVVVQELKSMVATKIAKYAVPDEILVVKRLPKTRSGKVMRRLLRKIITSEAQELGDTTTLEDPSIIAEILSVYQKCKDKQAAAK
Source text: (§1) The biochemical assays for testing the selectivity of the compounds according to this invention, were done using human recombinant proteins (Cusabio, China). The readout of the assays was AMP levels, the […] of the reactions, by HPLC method. The acyl substrates (Sigma-Aldrich) of the assays were as followed: ACSS1/ACSS2—Acetate, AACS-Acetoacetyl, ACSF2—Octanoate and ACSL5—Palmitate. The protein in this panel include ACSS1, the closest homolog of ACSS2, in addition to representative short/medium/long chain acyl-CoA syntatases.

AACS = biological target: T2, AACS (Homo sapiens, UniProt Q86V21); test: Acyl-CoA synthetases selectivity panel: AACS; type: biochemical; settings: human recombinant protein, substrate acetoacetyl, AMP readout by HPLC; read-out: HPLC based activity assays IC50 (UM) AACS
T2 construct: purchased Cusabio, China
T2 sequence (Q86V21 1-672): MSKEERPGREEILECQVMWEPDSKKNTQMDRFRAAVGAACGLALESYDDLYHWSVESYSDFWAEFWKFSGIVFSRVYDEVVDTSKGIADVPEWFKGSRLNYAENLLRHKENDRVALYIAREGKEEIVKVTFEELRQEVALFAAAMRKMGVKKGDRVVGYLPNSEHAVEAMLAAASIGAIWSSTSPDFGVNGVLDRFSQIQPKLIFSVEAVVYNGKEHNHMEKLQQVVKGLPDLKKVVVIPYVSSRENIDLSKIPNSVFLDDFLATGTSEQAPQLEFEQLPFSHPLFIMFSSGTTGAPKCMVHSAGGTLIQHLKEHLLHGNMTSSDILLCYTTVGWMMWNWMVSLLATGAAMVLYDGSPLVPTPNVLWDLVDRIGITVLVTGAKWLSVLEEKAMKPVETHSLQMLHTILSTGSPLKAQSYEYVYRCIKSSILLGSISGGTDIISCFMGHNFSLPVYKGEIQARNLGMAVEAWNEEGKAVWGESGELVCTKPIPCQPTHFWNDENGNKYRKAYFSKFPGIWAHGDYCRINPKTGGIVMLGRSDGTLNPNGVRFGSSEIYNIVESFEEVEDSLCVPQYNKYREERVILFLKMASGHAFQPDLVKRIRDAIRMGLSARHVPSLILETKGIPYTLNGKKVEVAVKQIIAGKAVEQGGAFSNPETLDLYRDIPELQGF
Source text: as §1

ACSS2 [2] = biological target: T3, ACSS2 (Homo sapiens, UniProt Q9NR19); test: Acyl-CoA synthetases selectivity panel: ACSS2; type: biochemical; parameters: purchased Cusabio, China; settings: human recombinant protein, substrate acetate, AMP readout by HPLC; read-out: HPLC based activity assays IC50 (UM) ACSS2
Source text: as §1

ACSF2 = biological target: T4, ACSF2 (Homo sapiens, UniProt Q96CM8); test: Acyl-CoA synthetases selectivity panel: ACSF2; type: biochemical; settings: human recombinant protein, substrate octanoate, AMP readout by HPLC; read-out: HPLC based activity assays IC50 (UM) ACSF2
T4 construct: purchased Cusabio, China
T4 sequence (Q96CM8 42-615): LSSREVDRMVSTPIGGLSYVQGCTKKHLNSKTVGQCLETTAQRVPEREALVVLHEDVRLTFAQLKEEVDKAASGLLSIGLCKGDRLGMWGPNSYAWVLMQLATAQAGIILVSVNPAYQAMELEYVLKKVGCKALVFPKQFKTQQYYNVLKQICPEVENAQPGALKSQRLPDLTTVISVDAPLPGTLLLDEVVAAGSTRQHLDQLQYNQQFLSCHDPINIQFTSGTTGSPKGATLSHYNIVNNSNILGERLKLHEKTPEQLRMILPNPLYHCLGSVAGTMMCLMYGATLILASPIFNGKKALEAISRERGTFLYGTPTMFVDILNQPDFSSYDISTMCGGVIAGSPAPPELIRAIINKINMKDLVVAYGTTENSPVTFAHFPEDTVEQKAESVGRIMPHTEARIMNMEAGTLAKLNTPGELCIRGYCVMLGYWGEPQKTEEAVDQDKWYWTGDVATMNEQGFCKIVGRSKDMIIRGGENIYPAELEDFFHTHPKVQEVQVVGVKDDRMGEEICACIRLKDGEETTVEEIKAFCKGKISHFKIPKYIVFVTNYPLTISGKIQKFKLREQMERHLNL
Source text: as §1

ACSL5 = biological target: T5, ACSL5 (Homo sapiens, UniProt Q9ULC5); test: Acyl-CoA synthetases selectivity panel: ACSL5; type: biochemical; settings: human recombinant protein, substrate palmitate, AMP readout by HPLC; read-out: HPLC based activity assays IC50 (UM) ACSL5
T5 construct: purchased Cusabio, China
T5 sequence (Q9ULC5 1-683): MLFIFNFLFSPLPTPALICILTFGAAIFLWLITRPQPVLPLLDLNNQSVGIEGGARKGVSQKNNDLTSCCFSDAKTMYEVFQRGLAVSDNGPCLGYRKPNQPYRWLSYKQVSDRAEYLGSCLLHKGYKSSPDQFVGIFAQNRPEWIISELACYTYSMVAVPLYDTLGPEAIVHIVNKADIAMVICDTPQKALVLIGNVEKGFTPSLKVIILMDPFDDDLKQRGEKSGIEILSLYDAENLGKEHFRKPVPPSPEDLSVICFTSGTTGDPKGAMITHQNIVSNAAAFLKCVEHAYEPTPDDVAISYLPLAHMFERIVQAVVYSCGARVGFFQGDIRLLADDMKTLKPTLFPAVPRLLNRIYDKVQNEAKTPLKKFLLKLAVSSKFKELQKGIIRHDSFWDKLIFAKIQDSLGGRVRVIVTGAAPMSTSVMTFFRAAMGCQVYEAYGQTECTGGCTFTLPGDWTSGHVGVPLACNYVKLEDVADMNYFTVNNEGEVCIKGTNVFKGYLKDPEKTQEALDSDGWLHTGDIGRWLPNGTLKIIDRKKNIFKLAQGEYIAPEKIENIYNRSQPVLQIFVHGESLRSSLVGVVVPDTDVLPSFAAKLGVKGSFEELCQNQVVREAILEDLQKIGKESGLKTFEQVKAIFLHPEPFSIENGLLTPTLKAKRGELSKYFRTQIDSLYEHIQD
Source text: as §1

ACSS2 [3] = biological target: T6, ACSS2 (Mus musculus, UniProt Q9QXG4); test: PK-PD study: inhibition of 13C incorporation into fatty-acid (palmitate) in vivo; settings: C57BL/6J mice, 50 mg/kg IP, 13C-ETOH PO at 1 h, plasma at 3 h, read-out: inhibition of 13C-Acetate incorporation into fatty-acids (palmitate)
T6 construct: from tissue; host or cells: whole animal, C57BL/6J mice; plasma palmitate read out
Experimental: Overnight fasted Female C57BL/6J mice (3n/group) were dosed at time=0 h with the indicated compound at 50 mg/kg IP (vehicle: 20% Solutol, 80% 0.2M Phosphate buffer pH 7.0). At time 1 h, 13C-ETOH (2.25 gr/kg 13C-ETOH dissolved in saline to a total volume of 10 ml/kg) were administrated by PO. At time 3 h plasma samples were taken for Fatty-acid analysis by Mass-spectrometry. The incorporation of ^13C into palmitate was done by Mass-spectrometry after saponification of the samples and the percent incorporation of ^13C was calculated.

ACSS2 [4] = biological target: T3, ACSS2; test: cell-based
Experimental: The cellular activity of ACSS2 was based on tracing the incorporation of carbons from ^13C-Acetate into fatty-acids.
BT474/MDA-MB-468 cells growing in DMEM+25 mM D-glucose+1 mM sodium pyruvate+10% FBS+2 mM glutamine were plated in 12-well plates at 0.4×10^6 cells/well. The cells were then incubated at CO2 incubator for 24 hrs at hypoxic conditions (1% O2) before treated with compounds. At day 2, the medium was replaced to DMEM medium containing 15 mM Glucose, 1 mM Pyruvate, 0.65 mM Glutamine, 1% Dialyzed serum, 3.5 ug/ml Biotin, 0.2 mM ^13C-Acetate and various concentrations of the compounds. The cells were incubated for 5 hours at CO2 incubator in hypoxic conditions (1% O2). At the end of the 5 hours' incubation, the cells were washed twice with cold PBS, harvested in 1 ml PBS and transfer into V-shaped HPLC glass vials and centrifuge for 10 min at 600 g at 4 C. The supernatant was removed, and the cells' pellets were stored at −80° C. until taken for saponification.
The cells pellets were resuspended with 0.5 ml of the 90% Methanol, 10% H2O, 0.3M NaOH mixture and incubated at 80° C. for 60 min. Following the incubation, 50 μl formic acid and 0.4 ml hexane were added and the mixture was vortexed for 2 minutes. The vials were left few minutes for phases separation and then 200 μl of the top hexane phase extracted to a new glass vial. The hexane was dried under nitrogen and reconstituted in 100 μl of Methanol: Acetonitrile 5:3 mixture. The solution transferred to Eppendorf tubes, spun down at 17000G for 20 min and transferred to LC-MS vials.
The analysis was performed with Thermo Q Exactive mass spectrometer with HESI probe and Dionex Ultimate 3000 UHPLC system. The separations were performed on Phenomenex Kintex 2.6u XB-C18 100A 150×2.10 mm column by injecting 5 ul of each sample. The chromatography started with a linear gradient from 85% to 100% of organic solvent (Methanol: Acetonitrile 1:1) versus 10 mM Ammonium Acetate buffer pH 4.7 for 3.5 minutes, followed by 4.5 minutes of isocratic 100% organic solvent and then 3 minutes of isocratic initial conditions, at a flow rate of 0.3 ul/min. The MS source conditions that were used: capillary temperature 325° C., sheath flow 25, aux flow 15, spray voltage 3.8 kV, aux temperature 300° C. The data collected from Negative ion mode at resolution of 70000 at Full-MS mode in 75-1000 m/z range.
The analysis of ^13C acetate incorporation into fatty acids (palmitate, myristate and stearate) performed on TraceFinder 3.2.512.0. The negative control areas and ^13C isotopic theoretical natural abundance were subtracted from the samples areas. Total ^13C incorporation for each fatty-acid (palmitate, myristate and stearate) was calculated and presented as percentage of the total amount.

T3 sequence (Q9NR19 whole entry): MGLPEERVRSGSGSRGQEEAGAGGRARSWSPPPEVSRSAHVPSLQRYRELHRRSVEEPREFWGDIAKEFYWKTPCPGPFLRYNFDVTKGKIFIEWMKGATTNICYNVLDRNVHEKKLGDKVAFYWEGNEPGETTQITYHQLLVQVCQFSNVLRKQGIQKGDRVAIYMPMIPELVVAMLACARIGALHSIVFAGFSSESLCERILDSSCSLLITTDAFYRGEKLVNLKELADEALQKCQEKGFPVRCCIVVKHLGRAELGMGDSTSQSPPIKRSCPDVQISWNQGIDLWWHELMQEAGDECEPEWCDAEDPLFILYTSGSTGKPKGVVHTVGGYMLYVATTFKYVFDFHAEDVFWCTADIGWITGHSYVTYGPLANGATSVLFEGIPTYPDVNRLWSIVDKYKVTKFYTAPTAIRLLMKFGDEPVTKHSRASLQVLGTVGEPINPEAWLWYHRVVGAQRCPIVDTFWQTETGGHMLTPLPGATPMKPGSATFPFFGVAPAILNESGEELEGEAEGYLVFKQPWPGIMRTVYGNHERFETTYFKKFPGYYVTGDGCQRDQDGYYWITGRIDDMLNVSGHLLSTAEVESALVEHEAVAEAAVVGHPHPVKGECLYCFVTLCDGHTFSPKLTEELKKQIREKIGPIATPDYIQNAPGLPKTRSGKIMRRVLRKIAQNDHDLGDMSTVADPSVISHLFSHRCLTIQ
T6 sequence (Q9QXG4 whole entry): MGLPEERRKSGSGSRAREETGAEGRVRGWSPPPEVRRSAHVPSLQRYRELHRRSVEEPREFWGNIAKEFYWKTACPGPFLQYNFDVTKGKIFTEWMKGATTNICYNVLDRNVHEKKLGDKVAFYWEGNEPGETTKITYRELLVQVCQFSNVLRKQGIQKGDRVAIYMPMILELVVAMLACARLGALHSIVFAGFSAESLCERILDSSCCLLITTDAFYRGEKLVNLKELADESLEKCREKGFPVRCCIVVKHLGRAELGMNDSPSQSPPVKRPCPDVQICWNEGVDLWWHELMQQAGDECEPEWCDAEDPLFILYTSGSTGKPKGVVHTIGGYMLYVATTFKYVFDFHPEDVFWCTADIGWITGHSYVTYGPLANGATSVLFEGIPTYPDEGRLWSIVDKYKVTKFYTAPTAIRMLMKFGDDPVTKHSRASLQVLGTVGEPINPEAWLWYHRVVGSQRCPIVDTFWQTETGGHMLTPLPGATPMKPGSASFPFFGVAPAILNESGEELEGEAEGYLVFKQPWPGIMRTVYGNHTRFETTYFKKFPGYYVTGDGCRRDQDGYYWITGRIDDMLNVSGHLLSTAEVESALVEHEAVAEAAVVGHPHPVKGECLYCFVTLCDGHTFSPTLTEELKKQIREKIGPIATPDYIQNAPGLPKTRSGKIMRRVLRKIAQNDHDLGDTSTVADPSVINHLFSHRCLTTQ

CC1=NN(c2ccc(OC(F)F)cc2)C(=O)C1C(=O)Nc1cccc(C(C)(F)F)c1 (centres unmarked) [compound 298, N-(3-(1,1-difluoroethyl)phenyl)-1-(4-(difluoromethoxy)phenyl)-3-methyl-5-oxo-4,5-dihydro-1H-pyrazole-4-carboxamide]
efficacy in a model that does not utilize acetate (HCT116) (HCT116): no efficacy
tumor growth in MDA-MB-468 xenograft model [1]: significant tumor growth delay

COC(=O)c1cccc(N2N=C(C)C(C(=O)Nc3cccc(-c4ccco4)c3)C2=O)c1 (centres unmarked) [compound 269, methyl 3-(4-((3-(furan-2-yl)phenyl)carbamoyl)-3-methyl-5-oxo-4,5-dihydro-1H-pyrazol-1-yl)benzoate]
pIC50 (ACSS1): 4.00 to 5.00
pIC50 (AACS): 4.72
pIC50 (ACSS2 [2]): > 9.00
pIC50 (ACSF2): 4.55
pIC50 (ACSL5): 4.35

CC1=NN(c2ccc(C(F)(F)F)cc2)C(=O)C1C(=O)Nc1cccc(C(C)(F)F)c1 (centres unmarked) [compound 264, N-(3-(1,1-difluoroethyl)phenyl)-3-methyl-5-oxo-1-(4-(trifluoromethyl)phenyl)-4,5-dihydro-1H-pyrazole-4-carboxamide]
pIC50 (ACSS1): 5.00 to 6.00
pIC50 (AACS): 4.28
pIC50 (ACSS2 [2]): 8.00 to 9.00
pIC50 (ACSF2): 4.37
pIC50 (ACSL5): 3.94

CC1=NN(c2ccc(OC(F)F)c(-c3cnccn3)c2)C(=O)C1C(=O)Nc1cccc(C(C)(F)F)c1 (centres unmarked) [compound 328, N-[3-(1,1-difluoroethyl)phenyl]-1-[4-(difluoromethoxy)-3-pyrazin-2-yl-phenyl]-3-methyl-5-oxo-4H-pyrazole-4-carboxamide]
inhibition at 50 mg/kg (ACSS2 [3]): 87%

CC1=NN(c2ccccc2)C(=O)C1C(=O)Nc1cccc(-c2ccco2)c1 (centres unmarked) [compound 108]
pIC50 (ACSS1): 4.00 to 5.00
pIC50 (AACS): 4.08
pIC50 (ACSS2 [2]): > 9.00
pIC50 (ACSF2): 4.44
pIC50 (ACSL5): 4.12

COC(=O)c1cccc(N2N=C(C)C(C(=O)Nc3cccc(-c4ncc[nH]4)c3)C2=O)c1 (centres unmarked) [compound 167, Methyl 3-(4-((3-(1H-imidazol-2-yl)phenyl)carbamoyl)-3-methyl-5-oxo-4,5-dihydro-1H-pyrazol-1-yl)benzoate]
pIC50 (ACSS2 [4]): 6.00 to 7.00

CC1=NN(c2ccccc2)C(=O)C1C(=O)Nc1cccc(C(C)(F)F)c1 (centres unmarked) [compound 141]
pIC50 (ACSS1): 4.00 to 5.00
pIC50 (AACS): 3.83
pIC50 (ACSS2 [2]): 8.00 to 9.00
pIC50 (ACSF2): 3.80
pIC50 (ACSL5): < 4.00

COc1ccc(N2N=C(C)C(C(=O)Nc3cccc(C(C)(F)F)c3)C2=O)cn1 (centres unmarked) [compound 242, N-(3-(1,1-difluoroethyl)phenyl)-1-(6-methoxypyridin-3-yl)-3-methyl-5-oxo-4,5-dihydro-1H-pyrazole-4-carboxamide]
inhibition at 50 mg/kg (ACSS2 [3]): 84%

CC1=NN(c2ccc(OC(F)(F)F)cc2)C(=O)C1C(=O)Nc1cc(C(C)(F)F)cs1 (centres unmarked) [compound 296, N-(4-(1,1-difluoroethyl)thiophen-2-yl)-3-methyl-5-oxo-1-(4-(trifluoromethoxy)phenyl)-4,5-dihydro-1H-pyrazole-4-carboxamide]
tumor growth in MDA-MB-468 xenograft model [1]: inhibits tumor growth

COc1ccc(N2N=C(C)C(C(=O)Nc3cccc(-c4ccco4)c3)C2=O)cc1 (centres unmarked) [compound 266, N-(3-(furan-2-yl)phenyl)-1-(4-methoxyphenyl)-3-methyl-5-oxo-4,5-dihydro-1H-pyrazole-4-carboxamide]
pIC50 (ACSS1): 4.00 to 5.00
pIC50 (AACS): 4.19
pIC50 (ACSS2 [2]): > 9.00
pIC50 (ACSF2): 4.29
pIC50 (ACSL5): 4.46

CC1=NN(c2cccc(C(F)(F)F)c2)C(=O)C1C(=O)Nc1cccc(-c2cnccn2)c1 (centres unmarked) [compound 166]
pIC50 (ACSS2 [4]): < 6.00

CC(=O)Cc1cccc(NC(=O)C2C(=O)N(c3ccccc3)N=C2C)c1 (centres unmarked) [compound 145]
pIC50 (ACSS2 [4]): 6.00 to 7.00

COC(=O)c1cccc(N2N=C(C)C(C(=O)Nc3cccc(-c4cnccn4)c3)C2=O)c1 (centres unmarked) [compound 164]
pIC50 (ACSS2 [4]): 6.00 to 7.00

CC1=NN(c2ccccc2)C(=O)C1C(=O)Nc1cccc(C(=O)N(C)C)c1 (centres unmarked) [compound 220]
pIC50 (ACSS2 [4]): < 6.00
